Measured values from patent publication US20110130374A1, “Small Pyrimidine Derivatives and Methods of Use Thereof” (BIOSEARCH(2007) LTD., priority 2009, published 2011).

How the values were obtained:
[1] = system: LS175T (colon) cells; experiment: Transwell cell migration assay, LS175T; type: cell-based
Excerpt: (§1) A375 (melanoma) (CRL-1619, ATCC, Manassas, Va., USA), A431 (melanoma) (CRL-2592, ATCC, Manassas, Va., USA), A2058 (melanoma) (CRL-11147, ATCC, Manassas, Va., USA), MDA-MB-231 (breast) (HTB-26, ATCC, Manassas, Va., USA), LS175T (colon) (ATCC, Manassas, Va., USA), HT29 (colon) (HTB-38, ATCC, Manassas, Va., USA), PC3 (prostate) (CRL-1435, ATCC, Manassas, Va., USA), Panc03.27 (pancreatic) (ATCC, Manassas, Va., USA), 4T1 (breast-mouse) (CRL-2539, ATCC, Manassas. Va., USA), D122 (lung-mouse) (the Weizmann Institute of Science), D122-luc (lung-mouse) (the Weizmann Institute of Science), and B16 F10.9 (melanoma-mouse) cells (Caliper Life Sciences, Hopkinton Mass.), were grown in RPMI medium supplemented with 10% FBS. HUVEC cells were grown in Endothelial Cell Growth Medium 2 and THP1 cells were grown in RPMI medium supplemented with 10% FBS, 2 mM L-Glutamine, 1.5 g/L sodium bicarbonate, 10 mM Hepes, 1 mM sodium pyruvate, 4.5 g/L glucose and 0.05 mM 2-mercaptoethanol. The cells were starved for 24 hours in medium without FBS. […] Cells that migrated to the lower side of the membrane were stained with Calcein-AM (Sigma) and images were taken with a fluorescence microscope. The number of migrating cells was quantified by ImageJ software and the IC50 values were calculated using Prism software (Graphpad).

[2] = system: DU145 prostate cancer cell line; experiment: Transwell cell migration assay, DU 145 prostate cancer cell line; type: cell-based; details: DU145, 12.5 μM, 24 h, 8 μm pore (FIG. 2)
Method: (§2) MDA-MB-231 (HTB-26, ATCC, Manassas, Va., USA) and MDA-MB-468 (HTB-132, ATCC, Manassas, Va., USA) breast cancer cell lines and DU 145 (HTB-81, ATCC, Manassas, Va., USA) prostate cancer cell line grown in RPMI medium supplement with 10% FBS were starved for 24 hours in medium without FBS. After 24 hours, 5×10^4 cells in FBS free medium were placed in the upper chamber of 24-well Transwell apparatus (CORNING TRANSWELL® polycarbonate membrane inserts, 8 μm pore size) with solvent (DMSO/PEG400) or 12.5 μM Compound 1 as indicated. Medium with FBS and Compound 1 was added to the bottom chamber. Twenty-four hours later the cells from the upper chamber were removed with a cotton swab. Cells that migrated to the lower side of the membrane were stained with Calcein-AM (Sigma) and images were taken with a fluorescence microscope.

[3] = system: HUVEC cells; experiment: HUVEC tube-formation assay; type: cell-based, human; details: 25 μM, 6 h, BME with 50 ng/ml VEGF (FIG. 3)
Method: Human umbilical vein endothelial cells (HUVEC) were grown routinely in Endothelial Cell Growth Medium 2 with SupplementMix (PromoCell, Germany) containing 15% fetal bovine serum. For Tube-formation assay, 1×10^4 cells, in the above medium containing 5% fetal bovine serum, were seeded on top of Cultrex reduced growth factor Basement Membrane Extract (BME) (R&D Systems, Minneapolis, Minn.) supplemented with 50 ng/ml VEGF (Prospec, Israel). The cells were treated with either solvent (50% DMSO/50% PEG400), 25 μM compound 1 (PRT7000467), 10 μM LY294004 (Cayman Chemical, Ann Arbor, Mich.) or 3 μM FTY720 (Cayman Chemical, Ann Arbor, Mich.) as indicated. LY294004 is a PI3K inhibitor and FTY720 is a modulator of sphingosine-1-phosphate receptors, both of them served as positive controls. Six hours later the cells were stained with Calcein-AM (Sigma, Israel) and images were taken with a fluorescence microscope.

[4] = system: MDA-MB-231 breast cancer cells; experiment: Transwell cell migration assay, MDA-MB-231 breast cancer cells; type: cell-based
Method: as §2, with “microscope. […]” for “microscope.”

[5] = system: Panc03.27 (pancreatic) cells; experiment: Transwell cell migration assay, Panc03.27; type: cell-based; details: Homo sapiens, PANC-03-27; Panc 03.27, Pancreatic
Excerpt: as §1

[6] = system: HT29 (colon) cells; experiment: Transwell cell migration assay, HT29; type: cell-based; details: Homo sapiens, HT-29
Excerpt: as §1

[7] = system: PC3 (prostate) cells; experiment: Transwell cell migration assay, PC3; type: cell-based
Excerpt: as §1

[8] = system: HUVEC cells; experiment: Transwell cell migration assay, HUVEC; type: cell-based; details: Homo sapiens, Endothelial
Excerpt: as §1

[9] = system: MDA-MB231 breast cancer cells; experiment: Soft agar colony formation, MDA-MB231 breast cancer cells; type: cell-based; details: 14 days, MTT
Method: The assay was done using CYTOSELECT™ 96-Well In Vitro Tumor Sensitivity Assay kit from Cell Biolabs, Inc. (San-Diego, Calif.). The cells were grown for 14 days with RPMI and 10% FBS medium in the presence of the indicated concentration of Compound 1 (PRT7000467). The quantification of the colony formation on soft agar was done using MTT reagent after solubilization of the agar (all the materials are supplied in the kit). The IC50 value was calculated using Prism software.

[10] = system: D122 (lung-mouse) cells; experiment: Transwell cell migration assay, D122; type: cell-based
Excerpt: as §1

Cc1cc(C)nc(NS(=O)(=O)c2ccc(NC(=O)/C(=C\c3cccs3)NC(=O)c3cccs3)cc2)n1 [Compound 1]
IC50 [1]: 1 µM | cell migration (Transwell, images) [2]: inhibits the migration | formation of tube-like structure by HUVEC cells [3]: inhibits the formation of tube-like structure | IC50 ([4]; Homo sapiens, MDA-MB-231, MDA-MB231, Breast): 0.5 µM | cell migration (Transwell, images) ([4]; MDA-MB-231, 12.5 μM, 24 h, 8 μm pore (FIG. 2)): inhibits the migration | IC50 [5]: 1 µM | IC50 [6]: 1.5 µM | IC50 [7]: 6.3 µM | IC50 [8]: 2.9 µM | soft agar colony formation ([9]; MDA-MB231 breast cancer cells): inhibits soft agar colony formation | LD50 in the soft agar colony formation assay ([9]; MDA-MB231 cells): 13.08 µM | IC50 [10]: 1.4 µM
